Measured values: US11851681B2, “Cell preparation method” (KYOTO PREFECTURAL PUBLIC UNIVERSITY CORPORATION, priority 2015, dated 2023)
Entries after “also recorded” stand apart in the source; their conditions may differ.

Legend:
[1] = test system: human dermal fibroblasts; HDFs; test: Bodipy staining in WA medium (BODIPY positive cells), Example 46; settings: day 12, FIG. 50
[2] = test system: human gingival fibroblasts; GFs; settings: 4 μM in calcification induction medium; day 18; FIG. 28
Procedure: The calcification induction medium is a 10% FBS DMEM added with 50 μg/ml ascorbic acid, 10 mM β-glycerophosphate and 100 nM Dexamethasone. The culture medium was exchanged with a fresh one every 3-4 days, and culturing was performed until day 18.
On day 18, the culture medium was removed from each well by suction, washed with PBS(−), and fixed with a fixative. It was washed 3 times with sterile distilled water. The well after ALP staining was washed with sterile distilled water, and photographed with an inverted microscope at ×40 magnification.

[3] = test system: Human normal skin-derived fibroblasts (HDFs); test: Real-time RT-PCR of ALP, Osteocalcin, Bonesialoprotein, Example 35; assay type: cell-based; settings: calcification induction medium added with ALK5 i II 4 μM; day 18; FIG. 39
Procedure: The concentrations of the small molecule compound or cytokine added are as follows. • ALK5 i II: 4 μM • 1α,25-dihydroxy Vitamin D3 (VD3): 5 nM • Human insulin-like growth factor-1 (IGF-1): 100 ng/ml.

[4] = test system: human dermal fibroblasts; HDFs; test: Real-time RT-PCR of Osteocalcin and Alkaline Phosphatase, Example 3; assay type: cell-based; settings: each compound 2 μM in calcification induction medium; day 24; FIG. 3
Procedure: The concentrations of the compounds are as follows: • D4476: 2 μM • SB431542: 2 μM • ALK5 inhibitor II: 2 μM.

[5] = test system: Human normal skin-derived fibroblasts (HDFs); test: Alizarin Red S and ALP staining, absorbance, TGF-β pathway inhibitor panel, Examples 31-32; assay type: cell-based
Procedure: On day 21, the culture medium was removed from a part of the well, washed with PBS(-), and fixed with a fixative. It was washed 3 times with sterile distilled water. […] In the experiment of Example 31, the solution after staining with the Alizarin Red S staining solution was collected in a 96 well plate and the absorbance (OD 550 nm) was measured with an absorption spectrometer.

[6] = test system: human peripheral blood mononuclear cells; PBMCs; settings: P-adipocyte induction medium, 4 μM; day 14; FIG. 57
Procedure: Human normal peripheral blood mononuclear cells (human peripheral blood mononuclear cells; PBMCs) were suspended in Control medium (RPMI1640 medium added with 10% FBS). […] P-adipocyte induction medium (adipocyte induction medium for peripheral blood mononuclear cell) was added to group 2 at 1 mL/well. P-adipocyte induction medium added with ALK5 inhibitor II at a concentration of 4 μM was added to group 3 at 1 mL/well. The P-adipocyte induction medium is RPMI1640 medium added with 10% FBS, 30 U/ml recombinant hIL-2, 1 nM T3, 1 μM Rosiglitazone, 0.5 mM 3-isobutyl-1-methylxanthine (IBMX), 0.5 μM dexamethasone and 1 μg/mL Insulin. Once every 2 days, 50% of the culture medium was exchanged with a fresh one.
On day 14, the culture medium was removed by suction from each well, washed with PBS(−) and total RNA was extracted from the cells by using RNA easy Mini Kit manufactured by Qiagen. cDNA was synthesized from the RNA by using Rever Tra Ace qPCR RT Master Mix. This cDNA was admixed with Real-time PCR Master Mix, primers specific to FABP4 gene or β actin gene and Taqman probe. qRT-PCR was performed using AB7300 Real-time PCR system. The mRNA level of FABP4 gene was quantified as a ratio to 3-actin gene mRNA level, and calculated with the value of human normal peripheral blood mononuclear cell cultured in the general medium as 1.

[7] = test system: human dermal fibroblasts; HDFs; test: Bodipy staining in WA medium, four inhibitors, Example 48; assay type: cell-based; settings: day 12, FIG. 52
[8] = test system: human dermal fibroblasts; HDFs; settings: 4 μM in calcification induction medium; day 18; FIG. 20
Procedure: The calcification induction medium is a 10% FBS DMEM added with 50 μg/ml ascorbic acid, 10 mM β-glycerophosphate and 100 nM Dexamethasone. The culture medium was exchanged with a fresh one every 3-4 days, and culturing was performed until day 18. On day 18, the culture medium was removed from each well by suction, washed with PBS(−), and fixed with 10% formalin. It was washed 3 times with sterile distilled water. The well after staining with Alizarin Red S was washed with sterile distilled water, and photographed with an inverted microscope at ×40 magnification.

[9] = test system: human dermal fibroblasts; HDFs; settings: 4 μM in MDI medium; day 14; FIG. 24
Procedure: MDI medium (3-isobutyl-1-methylxanthine/dexamethasone/insulin-containing medium) is 10% FBS DMEM added with 0.5 mM 3-isobutyl-1-methylxanthine (IBMX), 0.5 μM dexamethasone, and 1 μg/mL Insulin. The culture medium was exchanged with a fresh one every 3-4 days, and culturing was performed until day 14.
On day 14, the culture medium was removed from each well by suction, washed with PBS, and total RNA was extracted from the cell with ISOGEN II. cDNA was synthesized from the RNA by using Rever Tra Ace qPCR RT Master Mix. This cDNA was admixed with Real-time PCR Master Mix, and primers specific to AdipoQ, FABP4 or β-actin gene, and Taqman probe. qRT-PCR was performed using AB7300 Real-time PCR system. The mRNA level of AdipoQ and FABP4 gene was quantified as a ratio to β-actin gene mRNA level, and calculated with the value of fibroblast cultured in MDI medium as 1.

[10] = test system: Human normal skin-derived fibroblasts (HDFs); settings: 4 μM in adipocyte induction medium Day 1 to Day 8; day 14; FIG. 46
Procedure: Human normal skin-derived fibroblasts (HDFs) were suspended in a general medium (DMEM added with 10% FBS). […] The adipocyte induction medium is DMEM added with 1 nM T3, 1 μM Rosiglitazone, 0.5 mM 3-isobutyl-1-methylxanthine (IBMX), 0.5 μM dexamethasone, 1 μg/mL Insulin and 10% FBS. […] On day 14, the culture medium was removed by suction from each well, and washed with PBS(−). […] After washing 3 times with PBS(−), Blocking One was added, and the mixture was incubated at room temperature for 60 min. Anti-UCP-1 antibody (RD MAB6158) was added and the mixture was reacted for 2 hrs at room temperature, and washed 3 times with Wash buffer. CF488-conjugated anti-mouse Ig antibody (Biotum 20014) was added and the mixture was reacted for 2 hrs at room temperature, and washed 3 times with PBS(−). After nuclear staining with SlowFade Gold antifade reagent with DAPI manufactured by Lifetechnology, the cells were photographed with a fluorescence microscope at ×100 magnification.

[11] = test system: human dermal fibroblasts; HDFs; test: Real-time RT-PCR of CIDEA, Example 13; assay type: cell-based; settings: compound 2 μM in addition to T3 1 nM and Rosiglitazone 1 μM, adipocyte induction medium; day 14; FIG. 13
Procedure: The concentrations of the additives are as follows: • T3: 1 nM • Rosiglitazone: 1 μM • D4476: 2 μM • Pifithrin alpha [p53 inhibitor]: 5 μM • SB431542: 2 μM • ALK5 Inhibitor II: 2 μM.

HDF45, HDF69, HDF22 = settings: 4 μM in calcification induction medium; day 10 (ALP), day 15 (Alizarin Red S); FIG. 37, 38
Text: (§1) It was washed 3 times with sterile distilled water.
as §1

[12] = test system: Human normal skin-derived fibroblasts (HDFs); test: Real-time RT-PCR of UCP1, CIDEA, KCNK3, Example 41; assay type: cell-based; settings: ALK5 inhibitor II or LY2157299 (8 μM), Day 1 to Day 8; day 14; FIG. 45
Procedure: Human normal skin-derived fibroblasts (HDFs) were suspended in a general medium (DMEM added with 10% FBS). […] The adipocyte induction medium is DMEM added with 1 nM T3, 1 μM Rosiglitazone, 0.5 mM 3-isobutyl-1-methylxanthine (IBMX), 0.5 μM dexamethasone, 1 μg/mL Insulin and 10% FBS. Once every 2 days, the culture medium was exchanged with a fresh one, and culturing was performed from Day 1 to Day 8. Thereafter, from Day 9 to Day 14, the cells were cultured in an adipocyte induction medium free of ALK5 inhibitor II or LY2157299. On day 14, the culture medium was removed by suction from each well, washed with PBS(−) and total RNA was extracted from the cells by using RNA easy Mini Kit manufactured by Qiagen. cDNA was synthesized from the RNA by using Rever Tra Ace qPCR RT Master Mix. This cDNA was admixed with Real-time PCR Master Mix, primers specific to UCP-1 gene, CIDEA gene, KCNK3 gene or β actin gene and Taqman probe. qRT-PCR was performed using AB7300 Real-time PCR system. The mRNA level of UCP1 gene was quantified as a ratio to β-actin gene mRNA, and calculated with the value of fibroblast cultured in the general medium as 1.

[13] = test system: human adipose derived stem cells; ADSC; settings: calcification induction medium added with ALK5 inhibitor II; day 19; FIG. 5
Procedure: (§2) The calcification induction medium is 10% FBS DMEM added with 50 μg/ml ascorbic acid, 10 mM β-glycerophosphate and 100 nM Dexamethasone. The culture medium was exchanged with a fresh one every 3-4 days, and culturing was performed until day 19.
(§3) On day 19, the culture medium was removed from each well by suction, washed with PBS(−), and fixed with 10% formalin. It was washed 3 times with sterile distilled water. Thereafter, Alizarin Red S staining solution was added, and the mixture was incubated at room temperature for 15 min.

[14] = test system: human dermal fibroblasts; HDFs; settings: calcification induction medium added with ALK5 inhibitor II; day 19; FIG. 5
Procedure: as §2, §3

Cc1cccc(-c2n[nH]cc2-c2ccc3ncccc3n2)n1 [ALK5 inhibitor II, 2-(3-(6-Methylpyridin-2-yl)-1H-pyrazol-4-yl)-1,5-naphthyridine]
BODIPY positive cells / conversion to white adipocyte, co-addition with Rosiglitazone ([1]; WA medium co-added with 8 μM or 16 μM ALK5 inhibitor II and 1 μM Rosiglitazone): more cells were stained; also recorded: more strongly induced conversion of fibroblast to white adipocyte
BODIPY positive cells / conversion to white adipocyte, single addition ([1]; WA medium, 1 μM Rosiglitazone or 16 μM ALK5 inhibitor II): contained stained cells at low frequency; also recorded: converted human fibroblast to white adipocyte
conversion of gingival-derived fibroblast to osteoblast, ALP staining [2]: converted human gingival-derived fibroblast to osteoblast having high ALP activity
mRNA expression of ALP [3]: significantly increased
mRNA expression of BSP, compared to calcification induction medium [3]: increased
mRNA expression of OC, compared to calcification induction medium [3]: increased
conversion of human fibroblast to osteoblast, Osteocalcin and Alkaline Phosphatase mRNA [4]: converted to osteoblast expressing osteocalcin and alkaline phosphatase gene; also recorded: most efficiently converts fibroblast to osteoblast
conversion of human fibroblast to osteoblast, Alizarin Red S / ALP staining and absorbance ([5]; calcification induction medium, compounds 1 or 4 μM, TGF-β 10 ng/ml, day 21, FIG. 35, 36, listed as ALK5 i II): can strongly convert human fibroblast to osteoblast; also recorded: can most strongly convert human fibroblast to osteoblast
efficiency in converting fibroblast to osteoblast (summary statement) ([5]; description, conditions not given): highly efficient in converting fibroblast to osteoblast
conversion of peripheral blood mononuclear cell to white adipocyte, FABP4 mRNA [6]: converts human normal peripheral blood mononuclear cell to white adipocyte expressing FABP4 gene
lipid droplets stained with Bodipy, inhibitor alone ([7]; WA medium added with 16 μM compound alone): only a few cells contained lipid droplets stained with Bodipy
lipid droplets stained with Bodipy / conversion to white adipocyte, inhibitor and Rosiglitazone ([7]; WA medium added with 16 μM compound and 1 μM Rosiglitazone): many cells were stained; also recorded: most strongly induced conversion of fibroblast to white adipocyte
conversion of fibroblast to osteoblast, Alizarin Red S staining [8]: converted human skin-derived fibroblast to osteoblast that produces a large amount of calcified bone matrix
conversion of fibroblast to white adipocyte, AdipoQ and FABP4 mRNA [9]: converted human skin-derived fibroblast to white adipocyte expressing AdipoQ gene and FABP4 gene
fibroblasts converted to brown adipocyte highly expressing UCP1 protein (UCP1 positive cells in DAPI positive cells) [10]: more than 90%
staining with anti-UCP1 antibody [10]: many cells were strongly stained with anti-UCP1 antibody
conversion of fibroblast to brown adipocytes, CIDEA mRNA [11]: converted fibroblast to brown adipocytes expressing mRNA of CIDEA gene
conversion of fibroblasts from different individuals to osteoblasts, ALP and Alizarin Red S staining (HDF45, HDF69, HDF22): are converted to osteoblasts
conversion of fibroblast to brown adipocyte, UCP1, CIDEA and KCNK3 mRNA [12]: converted fibroblast to brown adipocyte expressing UCP1 gene, CIDEA gene and KCNK3 gene; also recorded: more strongly induced
conversion to osteoblast, Alizarin Red S staining and OD550, fat-derived mesenchymal stem cell [13]: converted to osteoblast having calcified bone matrix production ability
conversion to osteoblast, Alizarin Red S staining and OD550, human fibroblast [14]: converted to osteoblast having calcified bone matrix production ability
